# Experimental data as given in article PMC5519620 (Frontiers in Cellular Neuroscience, 2017).
# “Also recorded” adds a separate entry of the source.
# Columns and labels:
# N-type calcium channels = settings: cited from earlier work
# [1] = system: rat GABAB receptor (GABAB1a/GABAB2); type: cell-based
# [2] = system: rat GABAB receptor (GABAB1/GABAB2); type: binding
# neuropathic pain models = settings: in vivo; cited from earlier work
# [3] = system: N-type calcium channels in dorsal root ganglion neurons; settings: cited from earlier work
# GABAB receptor [4] = settings: cited from earlier work
# GABAB receptor [5] = settings: cited from earlier work; remark: listed apart in the source
# human α9α10 nAChR = settings: cited from earlier work
substance,measurement,setting,value
Vc1.1,N-type calcium channel block in α9 KO neurons,N-type calcium channels,block N-type calcium channels in cultured neurons from α9 KO mice
same,GABABR activation (BRET change),[1],do not activate GABABRs expressed in HEK cells; also recorded: no effect; also recorded: neither Vc1.1 nor any of the examined conotoxins activated the GABABR
same,Displacement of CGP54626-Red,[2],No displacement; also recorded: None of these conotoxins prevented the binding of the competitive orthosteric antagonist CGP54626-Red
same,Analgesic effect,neuropathic pain models,analgesic activity in several models of neuropathic pain
same,Block of N-type calcium channels,[3],blocks N-type calcium channels in dorsal root ganglion; also recorded: block N-type calcium channels in DRG neurons
same,Effect of G-protein signalling inhibition on N-type channel block,[3],"block of N-type calcium channels was eliminated by pertussis toxin, intracellular GDPβS, or an inhibitor of pp60c-src tyrosine kinase"
same,Competition with [3H]CGP54626,GABAB receptor [4],did not compete for binding with [3H]CGP54626
same,Competition with CGP54626,GABAB receptor [5],did not compete for binding
same,Potency human vs. rat α9α10 nAChR,human α9α10 nAChR,much less potent at the human vs. rat α9α10 nAChR
